US10577315B2, “Compositions and methods for treatment of prostate carcinoma” (Pellficure Pharmaceuticals, Inc., priority 2014, dated 2020)

Test system: PTEN-P2/GFP prostate cancer cells
Experiment: Effect of 1,4-naphthoquinone analogs on PTEN-P2/GFP cell proliferation (WST-1 cell viability, 24 h)
Assay type: cell-based
Settings: Mus musculus, WST-1, medium with 10% FBS and DHT, read-out: PTEN-P2/GFP cell proliferation, percent of control
Method: Cells are grown in phenol red-free DMEM medium containing 10% FBS, 2 mM L-glutamine, 100 U/ml penicillin/100 μg/ml streptomycin, insulin-selenium-transferrin (5 μg/ml insulin), and DHT 10^−8M final. Androgen withdrawal is achieved by not adding DHT to the medium. Cells are maintained in a humidified incubator at 37° C. and 5% CO2. G418 (100 μg/ml) is added to maintain stable expression of H2B-GFP.
100 microliters of PTEN-P2/GFP prostate cancer cells were plated at a density of 8000 cells/well in 96-well plates (triplicates) in growing medium containing 10% Fetal Bovine Serum and DHT. The next day, increasing concentrations of a 1,4-naphthoquinone analog (diluted from 10 mM DMSO stock solutions) were added. DMSO used as solvent for all analogs, was kept constant through the 96-well plates. The control consisted of DMSO alone. The cells were subsequently incubated for 24 hours at 37° C. and 5% CO2 in normal cell growth conditions. Cell viability was assessed by adding 9 μL/well of WST-1 reagent (Clontech), which measured mitochondrial activity of live cells. […] The incubation time was 3 hours at 37° C. Optical density of the cell samples was measured at 460 nm, by using plate reader Spectra Max 250 (Molecular Devices). The drug was determined to be cytotoxic when OD values show an inverse correlation with analog concentrations. The results are shown in TABLES 3.1-3.4, FIGS. 2A-2E, and FIGS. 3A-3D.

SMILES | activity at 2 µM [%] | activity at 3 µM [%] | activity at 4 µM [%] | activity at 5 µM [%] | activity at 6 µM [%] | activity at 7 µM [%] | activity at 10 µM [%] | activity at 15 µM [%] | activity at 25 µM [%] | activity at 1.2 µM [%] | activity at 2.5 µM [%] | activity at 7.5 µM [%] | activity at 20 µM [%]
Cc1cccc(OC2=CC(=O)c3ccccc3C2=O)c1 [Analog F08, 2-(3-methylphenoxy)-1,4-naphthoquinone] | 102 | 101 | 99.4 | 92.2 | 83.9 | 68.8 | 30.8 | 12.8 | 9.66 | – | – | – | –
O=C1C=C(Oc2ccc3ccccc3c2)C(=O)c2ccccc21 [Analog F09, 2-(naphthalene-2-yloxy)-1,4-naphthoquinone] | – | – | – | 106 | – | – | 28.7 | 1.97 | – | 117 | 114 | 70 | 3.09
O=C1C=C(Oc2ccc(O)cc2)C(=O)c2ccccc21 [Analog F10, 2-(4-hydroxyphenoxy)-1,4-naphthoquinone] | 98.6 | 95.4 | 91.2 | 82.8 | 67.1 | 53.6 | 25.2 | 16.7 | 17.6 | – | – | – | –
CN(C)CCc1ccc(OC2=CC(=O)c3ccccc3C2=O)cc1 [Analog F11, 2-(4-(2-dimethylaminoethyl)phenoxy)-1,4-naphthoquinone] | 99.6 | 93.4 | 79.2 | 61.3 | 46 | 36.4 | 22.8 | 12.3 | 9.33 | – | – | – | –
O=C1C=C(Oc2ccc([N+](=O)[O-])cc2)C(=O)c2ccccc21 [Analog F12, 2-(4-nitrophenoxy)naphthalene-1,4-dione] | – | – | – | 118 | – | – | 115 | 78.8 | – | 122 | 118 | 117 | 8.27
O=C1C=C(Oc2ccc(Cl)cc2Cc2ccccc2)C(=O)c2ccccc21 [Analog F13, 2-(2-benzyl-4-chlorophenoxy)naphthalene-1,4-dione] | – | – | – | 60.5 | – | – | 1.69 | 2.19 | – | 129 | 119 | 17.5 | 2.53
O=C1C=C(Oc2ccc(Cl)cc2)C(=O)c2ccccc21 [Analog F14, 2-(4-chlorophenoxy)naphthalene-1,4-dione] | – | – | – | 86.2 | – | – | 19.2 | 1.27 | – | 100 | 92.3 | 71 | 2.3
Cc1cc(OC2=CC(=O)c3ccccc3C2=O)ccc1Cl [Analog F15, 2-(4-chloro-3-methylphenoxy)naphthalene-1,4-dione] | – | – | – | 97.1 | – | – | 4.3 | 1.67 | – | 95.6 | 89 | 55.5 | 2.4
COc1ccc(OC2=CC(=O)c3ccccc3C2=O)c(Cl)c1 [Analog F16, 2-(2-chloro-4-methoxyphenoxy)naphthalene-1,4-dione] | – | – | – | 82.5 | – | – | 0.73 | 1.43 | – | 92.8 | 97 | 12 | 2.3
O=C1C=C(Oc2cc(F)cc(F)c2)C(=O)c2ccccc21 [Analog F17, 2-(3,5-difluorophenoxy)naphthalene-1,4-dione] | – | – | – | 88.7 | – | – | 71.5 | 1.07 | – | 97 | 91.8 | 78.2 | 2.53
O=C1C(Br)=C(Oc2ccccc2)C(=O)c2ccccc21 [Analog F18, 2-bromo-3-phenoxy-1,4-naphthoquinone] | 96.6 | 92.5 | 85.5 | 69.8 | 53.5 | 45 | 20.3 | 11.1 | 9.64 | – | – | – | –
COC(=O)c1ccccc1OC1=C(Br)C(=O)c2ccccc2C1=O [Analog F19, methyl 3-bromo-1,4-naphthoquinon-2-yl-salicylate] | 99.5 | 94.3 | 85.2 | 81 | 68.2 | 59.3 | 32.3 | 20.1 | 12.1 | – | – | – | –
O=C1C(Oc2ccccc2)=C(Oc2ccccc2)C(=O)c2ccccc21 [Analog F21, 2,3-diphenoxy-1,4-naphthoquinone] | 102 | 92.9 | 92.9 | 92.9 | 61.8 | 54.4 | 26.1 | 16.2 | 16.3 | – | – | – | –
O=C1C(Oc2c(F)cc(F)cc2F)=C(Oc2c(F)cc(F)cc2F)C(=O)c2ccccc21 [Analog F22, 2,3-bis(2,4,6-trifluorophenoxy)naphthalene-1,4-dione] | – | – | – | 105 | – | – | 104 | 105 | – | 91.2 | 103 | 107 | 101
O=C1C(Oc2ccc(O)cc2)=C(Oc2ccc(O)cc2)C(=O)c2ccccc21 [Analog F24, 2,3-bis(4-hydroxyphenoxy)-1,4-naphthoquinone] | – | – | – | 57.6 | – | – | 8.07 | 6.73 | – | 111 | 87.1 | 30.9 | 3.73
O=C(NCCCl)Oc1ccc(OC2=C(Oc3ccc(OC(=O)NCCCl)cc3)C(=O)c3ccccc3C2=O)cc1 [Analog F34, 2,3-bis(4-((2-chloroethyl)carbamoyloxy)phenoxy)-1,4-naphthoquinone] | 74.5 | 49.6 | 35.8 | 26 | 19.3 | 17.2 | 14.2 | 14.2 | 14.5 | – | – | – | –
CC(=O)NC1=C(Cl)C(=O)c2ccccc2C1=O [Analog F37, 2-N-acetylamino-3-chloro-1,4-naphthoquinone] | 101 | 94.4 | 86.6 | 71.4 | 55.7 | 36.7 | 17.6 | 13.9 | 13.6 | – | – | – | –
CC(=O)NC1=C(Oc2ccccc2)C(=O)c2ccccc2C1=O [Analog F38, N-(1,4-dioxo-3-phenoxy-1,4-dihydronaphthalen-2-yl)acetamide] | 95.8 | 87 | 71.7 | 54 | 41 | 30.7 | 16.6 | 14.7 | 14.3 | – | – | – | –
